Laboratory results reported in patent publication US9453051B2, “Cyclosporin derivatives” (priority 2011, dated 2016).

What was measured:
[1] = target: recombinant human wild type Cyp18 (Cyp18 wt) (Homo sapiens, UniProt P62937); experiment: biochemical
Experimental: The determination was performed on a UV/Vis spectrometer at 10° C. cuvette temperature, whereby the device is operated at 390 nm in kinetic-mode (measurement buffer: 35 mM HEPES/NaOH pH 7.8 (AppliChem A1069)). 0.58 nM recombinant human wild type Cyp18 (Cyp18 wt), 2.33 nM bovine serum albumin (BSA) and 1 mg/ml chymotrypsin (Merck) solved in 35 mM HEPES/NaOH pH 7.8 as well as different concentration of each test substance, where appropriate, were in the cuvette. The reaction was started with a stock solution of Suc-Ala-Ala-Pro-Phe-4-nitroanilide (Bachem, 10 mg/ml DMSO) as substrate so that a final substrate concentration of 32 μM resulted. The extinction-time-curves were evaluated after expiry of the fast phase of the reaction i.e. after approximately 60 seconds according to a rate equation of a first-order reaction.

calcineurin = calcineurin (Homo sapiens, UniProt P62937+P63098+Q08209); experiment: Inhibition of the phosphatase activity of calcineurin (scintillation-proximity-assay, in presence of Cyp18);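 further: calcineurin dephosphorylation of a ³³P-labelled RII phosphopeptide, captured on streptavidin-coated wells and read by scintillation counting, with uninhibited enzyme activity taken as 100%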

Chain of recombinant human wild type Cyp18 (Cyp18 wt) (P62937 whole entry): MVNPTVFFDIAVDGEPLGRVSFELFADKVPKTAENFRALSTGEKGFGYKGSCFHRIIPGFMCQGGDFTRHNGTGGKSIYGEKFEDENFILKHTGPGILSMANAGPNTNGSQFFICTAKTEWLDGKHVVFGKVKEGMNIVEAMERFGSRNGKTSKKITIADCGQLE

SMILES | IC50 [1] [nM] | IC50 (calcineurin) [nM]
CC[C@@H]1NC(=O)[C@H]([C@H](O)[C@H](C)Cc2nc3cc(C(=O)N[C@@H](CCC(=O)OCc4ccccc4)C(=O)N[C@@H](CCC(=O)OCc4ccccc4)C(N)=O)ccc3[nH]2)N(C)C(=O)[C@H](C(C)C)N(C)C(=O)[C@H](CC(C)C)N(C)C(=O)[C@H](CC(C)C)N(C)C(=O)[C@@H](C)NC(=O)[C@H](C)NC(=O)[C@H](CC(C)C)N(C)C(=O)[C@H](C(C)C)NC(=O)[C@H](CC(C)C)N(C)C(=O)CN(C)C1=O [Compound 57] | 16.9 | –
CC[C@@H]1NC(=O)[C@H]([C@H](O)[C@H](C)Cc2nc3cc(C(=O)NCCC(=O)NCCC(=O)NCCC(=O)NCCC(=O)NCCC(=O)NCCC(=O)O)ccc3[nH]2)N(C)C(=O)[C@H](C(C)C)N(C)C(=O)[C@H](CC(C)C)N(C)C(=O)[C@H](CC(C)C)N(C)C(=O)[C@@H](C)NC(=O)[C@H](C)NC(=O)[C@H](CC(C)C)N(C)C(=O)[C@H](C(C)C)NC(=O)[C@H](CC(C)C)N(C)C(=O)CN(C)C1=O [Compound 51] | 7.3 | > 10000
CC[C@@H]1NC(=O)[C@H]([C@H](O)[C@H](C)Cc2nc3cc(C(=O)NCCN(C)C)ccc3[nH]2)N(C)C(=O)[C@H](C(C)C)N(C)C(=O)[C@H](CC(C)C)N(C)C(=O)[C@H](CC(C)C)N(C)C(=O)[C@@H](C)NC(=O)[C@H](C)NC(=O)[C@H](CC(C)C)N(C)C(=O)[C@H](C(C)C)NC(=O)[C@H](CC(C)C)N(C)C(=O)CN(C)C1=O [Compound 52] | 8 | > 10000
CC[C@@H]1NC(=O)[C@H]([C@H](O)[C@H](C)Cc2nc3cc(C(=O)Oc4ccccc4C(=O)O)ccc3[nH]2)N(C)C(=O)[C@H](C(C)C)N(C)C(=O)[C@H](CC(C)C)N(C)C(=O)[C@H](CC(C)C)N(C)C(=O)[C@@H](C)NC(=O)[C@H](C)NC(=O)[C@H](CC(C)C)N(C)C(=O)[C@H](C(C)C)NC(=O)[C@H](CC(C)C)N(C)C(=O)CN(C)C1=O [Compound 65] | 20.2 | > 10000
CC[C@@H]1NC(=O)[C@H]([C@H](O)[C@H](C)CC2=N[C@@H]3CS[C@H](CCCCC(=O)O)[C@@H]3N2)N(C)C(=O)[C@H](C(C)C)N(C)C(=O)[C@H](CC(C)C)N(C)C(=O)[C@H](CC(C)C)N(C)C(=O)[C@@H](C)NC(=O)[C@H](C)NC(=O)[C@H](CC(C)C)N(C)C(=O)[C@H](C(C)C)NC(=O)[C@H](CC(C)C)N(C)C(=O)CN(C)C1=O [Compound 4] | 264 | > 10000
CC[C@@H]1NC(=O)[C@H]([C@H](O)[C@H](C)Cc2nc3cc(C(=O)NCCN4CCN(C(=O)CCC(=O)O)CC4)ccc3[nH]2)N(C)C(=O)[C@H](C(C)C)N(C)C(=O)[C@H](CC(C)C)N(C)C(=O)[C@H](CC(C)C)N(C)C(=O)[C@@H](C)NC(=O)[C@H](C)NC(=O)[C@H](CC(C)C)N(C)C(=O)[C@H](C(C)C)NC(=O)[C@H](CC(C)C)N(C)C(=O)CN(C)C1=O [Compound 54] | 7.1 | 7200
CC[C@@H]1NC(=O)[C@H]([C@H](O)[C@H](C)Cc2nc3cc(C(=O)N[C@@H](CS)C(=O)N[C@@H](C)C(N)=O)ccc3[nH]2)N(C)C(=O)[C@H](C(C)C)N(C)C(=O)[C@H](CC(C)C)N(C)C(=O)[C@H](CC(C)C)N(C)C(=O)[C@@H](C)NC(=O)[C@H](C)NC(=O)[C@H](CC(C)C)N(C)C(=O)[C@H](C(C)C)NC(=O)[C@H](CC(C)C)N(C)C(=O)CN(C)C1=O [Compound 60] | ~10 | –
CC[C@@H]1NC(=O)[C@H]([C@H](O)[C@H](C)Cc2nc3cc(C(=O)NCCOCCOCCNC(=O)CCC(=O)O)ccc3[nH]2)N(C)C(=O)[C@H](C(C)C)N(C)C(=O)[C@H](CC(C)C)N(C)C(=O)[C@H](CC(C)C)N(C)C(=O)[C@@H](C)NC(=O)[C@H](C)NC(=O)[C@H](CC(C)C)N(C)C(=O)[C@H](C(C)C)NC(=O)[C@H](CC(C)C)N(C)C(=O)CN(C)C1=O [Compound 68] | 8.5 | > 10000
CC[C@@H]1NC(=O)[C@H]([C@H](O)[C@H](C)Cc2nc3cc(C(=O)NCCN4CCNCC4)ccc3[nH]2)N(C)C(=O)[C@H](C(C)C)N(C)C(=O)[C@H](CC(C)C)N(C)C(=O)[C@H](CC(C)C)N(C)C(=O)[C@@H](C)NC(=O)[C@H](C)NC(=O)[C@H](CC(C)C)N(C)C(=O)[C@H](C(C)C)NC(=O)[C@H](CC(C)C)N(C)C(=O)CN(C)C1=O [Compound 64] | 17.2 | –
CC[C@@H]1NC(=O)[C@H]([C@H](O)[C@H](C)Cc2nc3cc(C(=O)N[C@@H](CS)C(=O)N[C@@H](CS)C(N)=O)ccc3[nH]2)N(C)C(=O)[C@H](C(C)C)N(C)C(=O)[C@H](CC(C)C)N(C)C(=O)[C@H](CC(C)C)N(C)C(=O)[C@@H](C)NC(=O)[C@H](C)NC(=O)[C@H](CC(C)C)N(C)C(=O)[C@H](C(C)C)NC(=O)[C@H](CC(C)C)N(C)C(=O)CN(C)C1=O [Compound 61] | ~10 | –
CC[C@@H]1NC(=O)[C@H]([C@H](O)[C@H](C)Cc2nc3cc(/C=C/C(=O)OC(C)(C)C)ccc3[nH]2)N(C)C(=O)[C@H](C(C)C)N(C)C(=O)[C@H](CC(C)C)N(C)C(=O)[C@H](CC(C)C)N(C)C(=O)[C@@H](C)NC(=O)[C@H](C)NC(=O)[C@H](CC(C)C)N(C)C(=O)[C@H](C(C)C)NC(=O)[C@H](CC(C)C)N(C)C(=O)CN(C)C1=O [Compound 14] | 36.4 | 3200
CC[C@@H]1NC(=O)[C@H]([C@H](O)[C@H](C)Cc2nc3cc(C(=O)N[C@@H](CO)C(=O)N[C@@H](CCC(=O)O)C(N)=O)ccc3[nH]2)N(C)C(=O)[C@H](C(C)C)N(C)C(=O)[C@H](CC(C)C)N(C)C(=O)[C@H](CC(C)C)N(C)C(=O)[C@@H](C)NC(=O)[C@H](C)NC(=O)[C@H](CC(C)C)N(C)C(=O)[C@H](C(C)C)NC(=O)[C@H](CC(C)C)N(C)C(=O)CN(C)C1=O [Compound 62] | 4.4 | –
CC[C@@H]1NC(=O)[C@H]([C@H](O)[C@H](C)Cc2nc3c(C(=O)O)cccc3n2C)N(C)C(=O)[C@H](C(C)C)N(C)C(=O)[C@H](CC(C)C)N(C)C(=O)[C@H](CC(C)C)N(C)C(=O)[C@@H](C)NC(=O)[C@H](C)NC(=O)[C@H](CC(C)C)N(C)C(=O)[C@H](C(C)C)NC(=O)[C@H](CC(C)C)N(C)C(=O)CN(C)C1=O [Compound 56] | > 1000 | > 10000
CC[C@@H]1NC(=O)[C@H]([C@H](O)[C@H](C)Cc2nc3cc(S(=O)(=O)O)cc(F)c3[nH]2)N(C)C(=O)[C@H](C(C)C)N(C)C(=O)[C@H](CC(C)C)N(C)C(=O)[C@H](CC(C)C)N(C)C(=O)[C@@H](C)NC(=O)[C@H](C)NC(=O)[C@H](CC(C)C)N(C)C(=O)[C@H](C(C)C)NC(=O)[C@H](CC(C)C)N(C)C(=O)CN(C)C1=O [Compound 48] | 8.7 | > 10000
CC[C@@H]1NC(=O)[C@H]([C@H](O)[C@H](C)Cc2nc3cc(C(=O)N[C@@H](CCC(=O)O)C(=O)N[C@@H](CCC(=O)O)C(N)=O)ccc3[nH]2)N(C)C(=O)[C@H](C(C)C)N(C)C(=O)[C@H](CC(C)C)N(C)C(=O)[C@H](CC(C)C)N(C)C(=O)[C@@H](C)NC(=O)[C@H](C)NC(=O)[C@H](CC(C)C)N(C)C(=O)[C@H](C(C)C)NC(=O)[C@H](CC(C)C)N(C)C(=O)CN(C)C1=O [Compound 63] | 5.1 | –
CC[C@@H]1NC(=O)[C@H]([C@H](O)[C@H](C)Cc2nc3cc(C(=O)O)ccc3o2)N(C)C(=O)[C@H](C(C)C)N(C)C(=O)[C@H](CC(C)C)N(C)C(=O)[C@H](CC(C)C)N(C)C(=O)[C@@H](C)NC(=O)[C@H](C)NC(=O)[C@H](CC(C)C)N(C)C(=O)[C@H](C(C)C)NC(=O)[C@H](CC(C)C)N(C)C(=O)CN(C)C1=O [Compound 6] | 700 | –
